# What was measured:
# BT474 xenograft = assay: Mouse xenograft study, BT474 breast cancer; type: in vivo, nude mice; details: BT474 breast cancer xenograft, nude mice
# Description: (§1) Mouse Xenograft Studies: Xenograft studies adapted from a previous published protocol (Wu et al, Cancer Res. 2008 Oct. 15; 68(20):8393-9). Female BALB/c nude (nu/nu) mice (5-8 weeks) were obtained from Lasco (Industrial Park, Tai-Ping Area, Taichung City, Taiwan). The animals were maintained under specific pathogen-free conditions, and food and water were supplied ad libitum. Housing and all procedures involving animals were performed according to protocols approved by the IACUC in DCB. Nude mice were inoculated with 17-β-estradiol pellets 72 to 96 h before implantation of BT-474 cells. For subcutaneous implantation of BT-474 cells, cells (1×10^7 in matrix gel/animal) were injected subcutaneously into the right subaxillary region. Treatment started when average tumor volume reached about 200 mm^3; mice were treated (p.o., QD/28 cycles in total) with vehicle A (0.5% methylcellulose), or candidate compounds formulated in vehicle A (10-50 mg/kg body weight). Perpendicular diameter measurement of each tumor were made with digital calipers and the volume of the tumor calculated using formula (L×W×W)/2, in which L and W represent the length and the width, respectively. Body weights were measured three times weekly.
# (§2) The in vivo effectiveness of contemplated compounds in the reduction of tumor volume in nude mice is readily apparent.
# (§3) Development of resistance to treatment in advanced stage tumors is a well known phenomenon. Activity of select Hec1 inhibitor in such late stage tumors was determined by re-dosing of BT474 xenografted animals that had previously subjected to 35 days of treatment with 110095 (compound 27 of Table 1). Re-treatment with 110095 was starting on day 42 and continued for 21 days.
# Huh-7 xenograft = assay: Mouse xenograft study, Huh-7 liver cancer; type: in vivo; details: Huh-7 liver cancer xenograft, nude mice
# [1] = Body weight in mouse xenograft studies; type: in vivo, nude mice; details: xenograft studies FIG. 7A-7D, nude mice
# Description: as §1, §2, §3
# MDA-MB-231 xenograft = assay: Mouse xenograft study, MDA-MB-231 breast cancer; type: in vivo; details: MDA-MB-231 breast cancer xenograft, nude mice
# MDA-MB-468 = assay: Antiproliferation assay (MTS), MDA-MB-468 cells; type: cell-based; details: Homo sapiens, MDA-MB-468, 96 h, Table 2, read-out: Antiproliferative IC50 MDA-MB-468
# Procedure, shortened: (§4)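 Cells seeded after overnight attachment were treated in triplicate for 96 h at 37 °C, 5% CO2, final DMSO below 1%. Viability read by MTS absorbance; concentration-response curves fitted by linear regression against DMSO controls.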
# MDA-MB-231 = assay: Antiproliferation assay (MTS), MDA-MB-231 cells; type: cell-based; details: Homo sapiens, MDA-MB-231, 96 h, read-out: Antiproliferative IC50 MDA-MB-231, Table 2
# Procedure, shortened: as §4
# cancer cells = assay: DNA content analysis (propidium iodide, FACS); type: cell-based
# Description: DNA Content Analysis: Cells were plated in a 10-cm culture plate and cultured overnight. Cells were incubated with the compound for the indicated time and collected at the indicated time points. Cells were fixed with 70% ethanol overnight, stained with propidium iodide solution (1.25 mg/ml propidium iodide (Sigma) and 20 μl/ml […] in PBS) and subjected to fluorescence activated cell sorting (FACS). The results were analyzed by Cell Quest software (BD Biosciences, San Jose Calif. 95131 USA).
smiles,measurement,setting,value
"COc1ccc(Oc2cc(C)c(-c3csc(NC(=O)c4ccncc4)n3)c(C)c2)cc1 [II-95, N-(4-(4-(4-Methoxyphenoxy)-2,6-dimethylphenyl)thiazol-2-yl)isonicotinamide]",xenograft tumor outgrowth,BT474 xenograft,inhibition of xenograft tumor outgrowth
same,xenograft tumor outgrowth,Huh-7 xenograft,inhibition of xenograft tumor outgrowth
same,body weight,[1],body weight remained constant
same,xenograft tumor outgrowth,MDA-MB-231 xenograft,inhibition of xenograft tumor outgrowth
"COc1ccc(Oc2cc(C)c(-c3csc(NC(=O)c4ccnc(F)c4)n3)c(C)c2)cc1 [II-98, 2-Fluoro-N-(4-(4-(4-methoxyphenoxy)-2,6-dimethylphenyl)thiazol-2-yl)isonicotinamide]",IC50,MDA-MB-468,40 nM
same,IC50,MDA-MB-231,20 nM
same,sub-G1 population (apoptotic cells),cancer cells,increase in the sub-G1 population

# From patent publication US8999983B2, “Modulators of Hec1 activity and methods therefor” (Taivex Therapeutics Corporation, priority 2011, dated 2015)
